Structures can show the parent of a compound that is named as a salt.
molecular target: human DP2 (Homo sapiens (Human), UniProt Q9Y5Y4); experiment: DP-2 Binding Inhibition Assay (3H-PGD2 binding to membranes of K562 cells expressing DP2); conditions: EC50 (nM) 0.1% BSA, inhibition of 3H-PGD2 binding, 0.1% BSA
Experimental: DP-2 Binding Inhibition Assay
The coding sequence of human DP2 was introduced into the human Leukemic cell line K562 by electroporation and stable clones expressing DP2 were obtained by limiting dilution followed by cell surface staining with a rat monoclonal antibody specific for human DP2. Membranes were prepared from one of these DP2 expressing clones and used to determine the ability of compounds of the present invention to inhibit binding of prostaglandin D2 (PGD2) to its receptor DP2 in the presence of one or more of the following serum protein concentrations, 0.1% BSA, 1% HSA or 4% HSA, by the following procedure. Membranes (1.25 μg/well for 0.1% BSA and 6 μg/well for 1% or 4% HSA) were mixed with ^3H-labeled PGD2 and various concentrations of test compounds in 150 μL of binding buffer (50 mM Tris-HCl, pH 7.4, 40 mM MgCl2, 0.1% bovine serum albumin, 0.1% NaN3) in 96-well U-bottom polypropylene plates. After incubation for 60 minutes at room temperature, the assay was transferred to a filtration plate (#MAFB; Millipore Corporation, Bedford, Mass.), and washed three times with binding buffer. Radioactivity was measured by a scintillation counter (TopCount; PerkinElmer Life Sciences, Boston, Mass.). Nonspecific binding was determined by incubations in the presence of 1 μM unlabeled PGD2 or 5 μM of a known DP2 antagonist. EC50 values for inhibition of binding were determined for each compound tested from the inflexion point of a standard 4-parameter logistical curve fitted to the values obtained.

Chain of human DP2 (Q9Y5Y4 whole entry): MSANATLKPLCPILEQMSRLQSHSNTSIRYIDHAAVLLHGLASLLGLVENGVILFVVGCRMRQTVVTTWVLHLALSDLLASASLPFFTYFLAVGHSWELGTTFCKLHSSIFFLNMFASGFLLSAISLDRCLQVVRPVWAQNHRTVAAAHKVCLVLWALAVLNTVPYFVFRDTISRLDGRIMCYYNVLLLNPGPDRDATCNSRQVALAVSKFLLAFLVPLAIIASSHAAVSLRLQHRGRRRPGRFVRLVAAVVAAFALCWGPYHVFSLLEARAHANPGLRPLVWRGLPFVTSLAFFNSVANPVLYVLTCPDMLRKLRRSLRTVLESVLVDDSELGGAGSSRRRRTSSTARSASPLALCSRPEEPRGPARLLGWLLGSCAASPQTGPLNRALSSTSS

SMILES | EC50 [nM]
O=C(NCCc1ccc(Cl)cc1O)c1ccc(Oc2cc3c(cc2Cl)C(C(=O)O)CCO3)cc1 (stereo not drawn) [Example 233, 6-Chloro-7-(4-(4-chloro-2-hydroxyphenethylcarbamoyl)phenoxy)chroman-4-carboxylic acid] | 11.1

same assay, conditions: EC50 (nM) 4% HSA, inhibition of 3H-PGD2 binding, 4% HSA

SMILES | EC50 [nM]
O=C(NC1CCC(c2ccccc2)CC1)c1ccc(Oc2cc3c(cc2Cl)C(C(=O)O)CCO3)cc1 (single isomer, unassigned) [Example 155 peak 2, 6-chloro-7-(4-(4-phenylcyclohexylcarbamoyl)phenoxy)chroman-4-carboxylic acid, isomer 2] | 1670

same assay, conditions: read-out: EC50 (Nm) 1% HSA; inhibition of 3H-PGD2 binding, 1% HSA

SMILES | EC50 [nM]
N#Cc1cc2c(cc1Oc1ccc(C(=O)Nc3ccc4c(c3)CNCC4)cc1)OCCC2C(=O)O (stereo not drawn) [Example 45, 6-Cyano-7-(4-(1,2,3,4-tetrahydroisoquinolin-7-ylcarbamoyl)phenoxy)chroman-4-carboxylic acid hydrochloride] | 1370
O=C(NCCc1ccc(Cl)cc1)c1ccc(Oc2cc(Cl)c3c(c2)OCCC3C(=O)O)cc1 (stereo not drawn) [Example 218, 5-chloro-7-(4-(4-chlorophenethylcarbamoyl)phenoxy)chroman-4-carboxylic acid] | 144
N#Cc1cc2c(cc1Oc1ccc(C(=O)NCCc3ccc(C(F)(F)F)cc3)cc1)OCCC2C(=O)O (stereo not drawn) [Example 50, 7-(4-((4-(Trifluoromethyl)phenethyl)carbamoyl)phenoxy)-6-cyano-3,4-dihydro-2H-chromene-4-carboxylic acid] | 11
N#Cc1cc2c(cc1Oc1ccc(C(=O)NCC3(c4ccc(Cl)cc4)CC3)cc1)OCCC2C(=O)O (stereo not drawn) [Example 219, 7-(4-((1-(4-chlorophenyl)cyclopropyl)methylcarbamoyl)phenoxy)-6-cyanochroman-4-carboxylic acid] | 1040
O=C(NCCc1ccc(Cl)cc1)c1ccc(Oc2cc3c(cc2Cl)C(C(=O)O)CCO3)c([N+](=O)[O-])c1 (stereo not drawn) [Example 9, 6-Chloro-7-(4-(4-chlorophenethylcarbamoyl)-2-nitrophenoxy)chroman-4-carboxylic acid] | 203

same assay, conditions: read-out: EC50 (nM) 4% HSA; inhibition of 3H-PGD2 binding, 4% HSA

SMILES | EC50 [nM]
O=C(NCCC1CCCCC1)c1ccc(Oc2cc3c(cc2Cl)C(C(=O)O)CCO3)cc1 (stereo not drawn) [Example 180, Sodium 6-chloro-7-(4-(2-cyclohexylethylcarbamoyl)phenoxy)chroman-4-carboxylate] | 407
CCOc1ccc(CCNC(=O)c2ccc(Oc3cc4c(cc3Cl)C(C(=O)O)CCO4)cc2)c(OC)c1 (stereo not drawn) [Example 227, 6-chloro-7-(4-(4-ethoxy-2-methoxyphenethylcarbamoyl)phenoxy)chroman-4-carboxylic acid] | 74.5
COc1cccc(CCNC(=O)c2ccc(Oc3cc4c(cc3Cl)C(C(=O)O)CCO4)cc2)c1OC (stereo not drawn) [Example 89, Sodium 6-chloro-7-(4-(2,3-dimethoxyphenethylcarbamoyl)phenoxy)chroman-4-carboxylate] | 146
O=C(NC1CCC(c2ccc(Cl)cc2)CC1)c1ccc(Oc2cc3c(cc2Cl)C(C(=O)O)CCO3)cc1 (stereo not drawn) [Example 176, Sodium 6-chloro-7-(4-(4-(4-chlorophenyl)cyclohexylcarbamoyl)phenoxy)chroman-4-carboxylate] | 339
COc1ccc(CCNC(=O)c2ccc(Oc3cc4c(cc3Cl)C(C(=O)O)CCO4)cc2)cc1 (stereo not drawn) [Example 140, Sodium 6-chloro-7-(4-(4-methoxyphenethylcarbamoyl)phenoxy)chroman-4-carboxylate] | 498
O=C(NC1CCN(c2cccc(Cl)c2)CC1)c1ccc(Oc2cc3c(cc2Cl)C(C(=O)O)CCO3)cc1 (stereo not drawn) [Example 120, Sodium 6-chloro-7-(4-(1-(3-chlorophenyl)piperidin-4-ylcarbamoyl)phenoxy)chroman-4-carboxylate] | 371
O=C(NCCc1ccc(Cl)cc1)c1ccc(Oc2cc3c(cc2C2CC2)C(C(=O)O)CCO3)cc1 (stereo not drawn) [Example 41, Sodium 7-(4-(4-chlorophenethylcarbamoyl)phenoxy)-6-cyclopropylchroman-4-carboxylate] | 150
COc1cc(OC)c(CCNC(=O)c2ccc(Oc3cc4c(cc3Cl)C(C(=O)O)CCO4)cc2)c(OC)c1 (stereo not drawn) [Example 222, 6-chloro-7-(4-(2,4,6-trimethoxyphenethylcarbamoyl)phenoxy)chroman-4-carboxylic acid] | 118
O=C(NCCc1c(F)cccc1Cl)c1ccc(Oc2cc3c(cc2Cl)C(C(=O)O)CCO3)cc1 (stereo not drawn) [Example 82, Sodium 6-chloro-7-(4-(2-chloro-6-fluorophenethylcarbamoyl)phenoxy)chroman-4-carboxylate] | 473
O=C(NCCc1ccccc1Oc1ccccc1)c1ccc(Oc2cc3c(cc2Cl)C(C(=O)O)CCO3)cc1 (stereo not drawn) [Example 65, Sodium 6-chloro-7-(4-(2-phenoxyphenethylcarbamoyl)phenoxy)chroman-4-carboxylate] | 80.4
O=C(NCCc1ccccc1C1CC1)c1ccc(Oc2cc3c(cc2Cl)C(C(=O)O)CCO3)cc1 (stereo not drawn) [Example 93, Sodium 6-chloro-7-(4-(2-cyclopropylphenethylcarbamoyl)phenoxy)chroman-4-carboxylate] | 107
O=C(NCCCCc1ccc(Cl)cc1)c1ccc(Oc2cc3c(cc2Cl)C(C(=O)O)CCO3)cc1 (stereo not drawn) [Example 15, Sodium 6-chloro-7-(4-(4-(4-chlorophenyl)butylcarbamoyl)phenoxy)chroman-4-carboxylate] | 746
O=C(NCCc1ccc(C2CC2)cc1Cl)c1ccc(Oc2cc3c(cc2Cl)C(C(=O)O)CCO3)cc1 (stereo not drawn) [Example 30, Sodium 6-chloro-7-(4-(2-chloro-4-cyclopropylphenethylcarbamoyl)phenoxy)chroman-4-carboxylate] | 301
COc1cc(CCNC(=O)c2ccc(Oc3cc4c(cc3C#N)C(C(=O)O)CCO4)cc2)ccc1Cl (stereo not drawn) [Example 133, 7-(4-(4-Chloro-3-methoxyphenethylcarbamoyl)phenoxy)-6-cyanochroman-4-carboxylic acid] | 625
COc1cc(Cl)c(CCNC(=O)c2ccc(Oc3cc4c(cc3Cl)C(C(=O)O)CCO4)cc2)c(OC)c1 (stereo not drawn) [Example 226, 6-chloro-7-(4-(2-chloro-4,6-dimethoxyphenethylcarbamoyl)phenoxy)chroman-4-carboxylic acid] | 88.5
COc1cccc(CCNC(=O)c2ccc(Oc3cc4c(cc3Cl)C(C(=O)O)CCO4)cc2)c1 (stereo not drawn) [Example 143, Sodium 6-chloro-7-(4-(3-methoxyphenethylcarbamoyl)phenoxy)chroman-4-carboxylate] | 1010
CSc1cc(Cl)ccc1CCNC(=O)c1ccc(Oc2cc3c(cc2Cl)C(C(=O)O)CCO3)cc1 (stereo not drawn) [Example 229, 6-chloro-7-(4-(4-chloro-2-(methylthio)phenethylcarbamoyl)phenoxy)chroman-4-carboxylic acid] | 67.5
O=C(NCCc1ccccc1C(F)(F)F)c1ccc(Oc2cc3c(cc2Cl)C(C(=O)O)CCO3)cc1 (stereo not drawn) [Example 152, Sodium 6-chloro-7-(4-(2-(trifluoromethyl)phenethylcarbamoyl)phenoxy)chroman-4-carboxylate] | 160
O=C(NCCc1ccc(Cl)cc1)c1ccc(Oc2c(C3CC3)cc3c(c2C2CC2)OCCC3C(=O)O)cc1 (stereo not drawn) [Example 39, Sodium 7-(4-(4-chlorophenethylcarbamoyl)phenoxy)-6,8-dicyclopropylchroman-4-carboxylate] | 68.2
COc1cc(Br)ccc1CCNC(=O)c1ccc(Oc2cc3c(cc2Cl)C(C(=O)O)CCO3)cc1 (stereo not drawn) [Example 35, Sodium 7-(4-(4-bromo-2-methoxyphenethylcarbamoyl)phenoxy)-6-chlorochroman-4-carboxylate] | 64.3
